{"source": "patent US12503454B2", "about": "“LPA receptor antagonists and uses thereof” (Gilead Sciences, Inc., priority 2021, dated 2025)"}
{"molecular_target": "human LPAR1 (Homo sapiens, UniProt Q92633)", "sequence (Q92633 whole entry)": "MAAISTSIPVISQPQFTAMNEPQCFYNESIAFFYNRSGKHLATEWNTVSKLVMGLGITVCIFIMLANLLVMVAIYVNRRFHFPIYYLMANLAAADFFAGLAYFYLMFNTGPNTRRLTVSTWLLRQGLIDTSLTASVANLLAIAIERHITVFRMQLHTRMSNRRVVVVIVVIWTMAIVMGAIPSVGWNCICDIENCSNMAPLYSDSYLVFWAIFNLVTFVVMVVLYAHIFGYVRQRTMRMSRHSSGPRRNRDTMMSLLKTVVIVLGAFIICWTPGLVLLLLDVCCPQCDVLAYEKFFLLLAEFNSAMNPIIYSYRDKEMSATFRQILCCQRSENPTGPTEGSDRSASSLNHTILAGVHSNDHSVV", "assay": "LPAR1 intracellular calcium mobilization assay (antagonist mode, FLIPR)", "type": "cell-based", "conditions": "CHO-K1 EDG2 cells expressing human LPAR1; test compound 0.5 nM to 10 μM pre-incubated 60 minutes at 37° C., then LPA 18:2 at EC80 concentration (100 nM)", "description": "In vitro LPAR1 activity was measured in an intracellular calcium mobilization assay. CHO-K1 EDG2 cells (DiscoverX cat #93-0644C2) expressing human LPAR1 (NM_001401.3) were seeded in a total volume of 25 μL of Dulbecco's Modification of Eagle's Medium (DMEM) with 10% Fetal Bovine Serum, 1× PenStrepGlutamine, 300 μg/ml Hygromycin, and 800 μg/ml G418 into 384-well tissue culture plate (Grenier #781091) at 15,000 cells/well and incubated at 37° C. overnight. Prior to testing, 25 μL Calcium Loading Dye Component A (FLIPR Calcium 6 Assay Kit Molecular Device # R8190) and 2.5 mM Probenecid (Invitrogen # P36400, prepared fresh) in Hank's Balanced Salt Solution (Corning #21-023-CV), 20 mM HEPES (Corning #25-060-CI), 0.1% Bovine Serum Albumin (Sigma-Aldrich # A7906-500G) was add to the cells for 60 minutes at 37° C.\nAgonist dose curves of LPA 18:2 (Avanti Polar Lipids cat #857138, 0.5 nM to 10 μM) were recorded to determine the LPA 18:2 EC80 for subsequent antagonist assays. For agonist dose curves, cells were removed from the incubator 2 hours after dye loading and transferred to the FLIPR Tetra instrument (Molecular Devices, San Jose, CA). Calcium mobilization was monitored for 5 min and 10 μL 6×LPA in HBSS/20 mM Hepes/0.1% bovine serum albumin (BSA) was added to the cells 5 seconds into the assay.\nTo determine the LPAR1 antagonist activity of test compounds, cells were pre-incubated with test compound at a dose range of 0.5 nM to 10 μM, followed by LPA at EC80 concentration (100 nM). After dye loading, cells were removed from the incubator and 0.3 μL of 200× antagonist was added. Cells were incubated for 60 minutes at 37° C. Antagonist activity was measured on a FLIPR Tetra. Calcium mobilization was monitored for 3.5 minutes and 10 μL 6×EC80 LPA in HBSS, 20 mM HEPES, and 0.1% BSA was added to the cells 5 seconds into the assay. Signal amplitude (Maximum minus minimum) values were plotted against log10 of antagonist concentration using Dose Response Tool (Gilead Sciences Inc.) to determine […].\nTo assess the antagonistic potential of exemplified compounds […] were determined for Compounds 1 to 66 in the LPAR1 calcium mobilization assay. The compound numbers correspond to the compound numbers in Examples 1 to 18. N/A=not available.", "units": {"EC50": "nM"}}
{"compound": "C[C@@H](OC(=O)Nc1c(-c2ccc(C(=O)Nc3cnc(C(F)(F)F)nc3)cn2)nnn1C)c1cc(F)cnc1F", "note": "[Compound 24, (R)-1-(2,5-difluoro-pyridin-3-yl)ethyl (1-methyl-4-(5-((2-(trifluorometh-yl)pyrimidin-5-yl)-carbamoyl)pyridin-2-yl)-1H-1,2,3-triazol-5-yl)-carbamate]", "EC50": 222}
{"compound": "C[C@@H](OC(=O)Nc1c(-c2ccc(C(=O)Nc3ccc(C(F)(F)F)nc3)cn2)nnn1C)c1cc(F)cnc1F", "note": "[Compound 25, (R)-1-(2,5-difluoro-pyridin-3-yl)ethyl (1-methyl-4-(5-((6-(trifluoromethyl)-pyridin-3-yl)-carbamoyl)pyridin-2-yl)-1H-1,2,3-triazol-5-yl)-carbamate]", "EC50": 364}
{"compound": "C[C@@H](OC(=O)Nc1c(-c2ccc(C(=O)NC34CC(c5ccccc5)(C3)C4)cn2)nnn1C)c1cc(F)cnc1F", "note": "[Compound 26]", "EC50": "< 4.6"}
{"compound": "C[C@@H](OC(=O)Nc1c(-c2ccc(C(=O)Nc3ccnc(F)c3)cn2)nnn1C)c1cc(F)cnc1F", "note": "[Compound 27, (R)-1-(2,5-difluoro-pyridin-3-yl)ethyl (4-(5-((2-fluoro-pyridin-4-yl)-carbamoyl)pyridin-2-yl)-1-methyl-1H-1,2,3-triazol-5-yl)-carbamate]", "EC50": 42.8}
{"compound": "C[C@@H](OC(=O)Nc1c(-c2ccc(C(=O)Nc3ccc(C4CC4)nc3)cn2)nnn1C)c1cc(F)cnc1F", "note": "[Compound 28, (R)-1-(2,5-difluoro-pyridin-3-yl)ethyl (4-(5-((6-cyclo-propylpyridin-3-yl)carbamoyl)-pyridin-2-yl)-1-methyl-1H-1,2,3-triazol-5-yl)-carbamate]", "EC50": 427}
{"compound": "C[C@@H](OC(=O)Nc1c(-c2ccc(C(=O)NC34CC(S(C)(=O)=O)(C3)C4)cn2)nnn1C)c1cc(F)cnc1F", "note": "[Compound 29, (R)-1-(2,5-difluoro-pyridin-3-yl)ethyl (1-methyl-4-(5-((3-(methylsulfon-yl)bicyclo[1.1.1]-pentan-1-yl)carbam-oyl)pyridin-2-yl)-1H-1,2,3-triazol-5-yl)carbamate]", "EC50": 3420}
{"compound": "C[C@@H](OC(=O)Nc1c(-c2ccc(C(=O)Nc3cccc(C(F)(F)F)c3)cn2)nnn1C)c1cc(F)cnc1F", "note": "[Compound 30, (R)-1-(2,5-difluoro-pyridin-3-yl)ethyl (1-methyl-4-(5-((3-(trifluoromethyl)-phenyl)carbam-oyl)pyridin-2-yl)-1H-1,2,3-triazol-5-yl)carbamate]", "EC50": 93}
{"compound": "C[C@@H](OC(=O)Nc1c(-c2ccc(C(=O)Nc3ccnc(C(F)F)c3)cn2)nnn1C)c1cc(F)cnc1F", "note": "[Compound 31, (R)-1-(2,5-difluoro-pyridin-3-yl)ethyl (4-(5-((2-(difluoro-methyl)pyridin-4-yl)carbamoyl)-pyridin-2-yl)-1-methyl-1H-1,2,3-triazol-5-yl)-carbamate]", "EC50": 14.9}
{"compound": "COc1cc(NC(=O)c2ccc(-c3nnn(C)c3NC(=O)O[C@H](C)c3cc(F)cnc3F)nc2)ccn1", "note": "[Compound 32, (R)-1-(2,5-difluoro-pyridin-3-yl)ethyl (4-(5-((2-methoxy-pyridin-4-yl)-carbamoyl)pyridin-2-yl)-1-methyl-1H-1,2,3-triazol-5-yl)-carbamate]", "EC50": 55.9}
{"compound": "C[C@@H](OC(=O)Nc1c(-c2ccc(C(=O)Nc3ccnc(OC(F)F)c3)cn2)nnn1C)c1cc(F)cnc1F", "note": "[Compound 33, (R)-1-(2,5-difluoro-pyridin-3-yl)ethyl (4-(5-((2-(difluoro-methoxy)pyridin-4-yl)carbamoyl)-pyridin-2-yl)-1-methyl-1H-1,2,3-triazol-5-yl)-carbamate]", "EC50": 273}
{"compound": "C[C@@H](OC(=O)Nc1c(-c2ccc(C(=O)Nc3ccc(C#N)c(C(F)(F)F)c3)cn2)nnn1C)c1cc(F)cnc1F", "note": "[Compound 34, (R)-1-(2,5-difluoro-pyridin-3-yl)ethyl (4-(5-((4-cyano-3-(trifluoromethyl)-phenyl)carbamoyl)-pyridin-2-yl)-1-methyl-1H-1,2,3-triazol-5-yl)-carbamate]", "EC50": 47.5}
{"compound": "C[C@@H](OC(=O)Nc1c(-c2ccc(C(=O)Nc3ccnc(Cl)c3F)cn2)nnn1C)c1cc(F)cnc1F", "note": "[Compound 35, (R)-1-(2,5-difluoro-pyridin-3-yl)ethyl (4-(5-((2-chloro-3-fluoropyridin-4-yl)-carbamoyl)-pyridin-2-yl)-1-methyl-1H-1,2,3-triazol-5-yl)-carbamate]", "EC50": 140}
{"compound": "C[C@@H](OC(=O)Nc1c(-c2ccc(C(=O)Nc3ccc(-c4ccccc4)cc3)cn2)nnn1C)c1cc(F)cnc1F", "note": "[Compound 36, (R)-1-(2,5-difluoro-pyridin-3-yl)ethyl (4-(5-([1,1′-biphen-yl]-4-ylcarbamoyl)-pyridin-2-yl)-1-methyl-1H-1,2,3-triazol-5-yl)-carbamate]", "EC50": 15.6}
{"compound": "C[C@@H](OC(=O)Nc1c(-c2ccc(C(=O)N[C@@H]3C[C@H]3c3ccccc3)cn2)nnn1C)c1cc(F)cnc1F", "note": "[Compound 37, (R)-1-(2,5-difluoro-pyridin-3-yl)ethyl (1-methyl-4-(5-(((1R,2S)-2-phenyl-cyclopropyl)carbam-oyl)pyridin-2-yl)-1H-1,2,3-triazol-5-yl)carbamate]", "EC50": 196}
{"compound": "C[C@@H](OC(=O)Nc1c(-c2ccc(C(=O)Nc3cnnc(Cl)c3)cn2)nnn1C)c1cc(F)cnc1F", "note": "[Compound 38, (R)-1-(2,5-difluoro-pyridin-3-yl)ethyl (4-(5-((6-chloro-pyridazin-4-yl)-carbamoyl)pyridin-2-yl)-1-methyl-1H-1,2,3-triazol-5-yl)-carbamate]", "EC50": 24.4}
{"compound": "Cc1nnc(-c2ccc(NC(=O)c3ccc(-c4nnn(C)c4NC(=O)O[C@H](C)c4cc(F)cnc4F)nc3)cc2)o1", "note": "[Compound 39, (R)-1-(2,5-difluoro-pyridin-3-yl)ethyl (1-methyl-4-(5-((4-(5-methyl-1,3,4-oxadiazol-2-yl)phenyl)-carbamoyl)-pyridin-2-yl)-1H-1,2,3-triazol-5-yl)carbamate]", "EC50": 9.1}
{"compound": "C[C@@H](OC(=O)Nc1c(-c2ccc(C(=O)Nc3ccc(-c4cccnc4)cc3)cn2)nnn1C)c1cc(F)cnc1F", "note": "[Compound 40, (R)-1-(2,5-difluoro-pyridin-3-yl)ethyl (1-methyl-4-(5-((4-(pyridin-3-yl)phenyl)carbam-oyl)pyridin-2-yl)-1H-1,2,3-triazol-5-yl)carbamate]", "EC50": 7.6}
{"compound": "C[C@@H](OC(=O)Nc1c(-c2ccc(C(=O)Nc3ccc(-c4ccncc4)cc3)cn2)nnn1C)c1cc(F)cnc1F", "note": "[Compound 41, (R)-1-(2,5-difluoro-pyridin-3-yl)ethyl (1-methyl-4-(5-((4-(pyridin-4-yl)phenyl)carbam-oyl)pyridin-2-yl)-1H-1,2,3-triazol-5-yl)carbamate]", "EC50": 61}
{"compound": "C[C@@H](OC(=O)Nc1c(-c2ccc(C(=O)Nc3cnc(C(F)(F)F)s3)cn2)nnn1C)c1cc(F)cnc1F", "note": "[Compound 42, (R)-1-(2,5-difluoro-pyridin-3-yl)ethyl (1-methyl-4-(5-((2-(trifluoromethyl)-thiazol-5-yl)-carbamoyl)pyridin-2-yl)-1H-1,2,3-triazol-5-yl)-carbamate]", "EC50": 10.1}
{"compound": "C[C@@H](OC(=O)Nc1c(-c2ccc(C(=O)Nc3cc(Cl)nc(C(F)(F)F)c3)cn2)nnn1C)c1cc(F)cnc1F", "note": "[Compound 43, (R)-1-(2,5-difluoro-pyridin-3-yl)ethyl (4-(5-((2-chloro-6-(trifluoromethyl)-pyridin-4-yl)-carbamoyl)pyridin-2-yl)-1-methyl-1H-1,2,3-triazol-5-yl)-carbamate]", "EC50": 9}
{"compound": "C[C@@H](OC(=O)Nc1c(-c2ccc(C(=O)NC3CC(c4ccccc4)C3)cn2)nnn1C)c1cc(F)cnc1F", "note": "(stereo partly drawn) [Compound 44, (R)-1-(2,5-difluoro-pyridin-3-yl)ethyl (1-methyl-4-(5-((3-phenylcyclo-butyl)carbamoyl)-pyridin-2-yl)-1H-1,2,3-triazol-5-yl)-carbamate]", "EC50": 273}
{"compound": "C[C@@H](OC(=O)Nc1c(-c2ccc(C(=O)Nc3ccnc(C(F)(F)F)c3)cn2)nnn1C)c1cc(F)cnc1Cl", "note": "[Compound 45, (R)-1-(2-chloro-5-fluoropyridin-3-yl)ethyl (1-methyl-4-(5-((2-(trifluoromethyl)pyridin-4-yl)carbamoyl)pyridin-2-yl)-1H-1,2,3-triazol-5-yl)carbamate]", "EC50": "< 4.6"}
{"compound": "C[C@@H](OC(=O)Nc1c(-c2ccc(C(=O)NC34CC(F)(C3)C4)cn2)nnn1C)c1cc(F)cnc1Cl", "note": "[Compound 46, (R)-1-(2-chloro-5-fluoropyridin-3-yl)ethyl (4-(5-((3-fluorobicyclo-[1.1.1]pentan-1-yl)carbamoyl)-pyridin-2-yl)-1-methyl-1H-1,2,3-triazol-5-yl)-carbamate]", "EC50": 88.1}
